Assay results published in publication PMC7037610, “Novel Cationic Prodrug of Ubiquinol-10 Enhances Intestinal Absorption via Efficient Formation of Nanosized Mixed-Micelles with Bile Acid Anions” (Molecules, 2020).
Values joined by “and” are separate entries in the source; they are usually repeats but may differ in a detail not shown here. Equal entries are not always repeated. Structures can show the parent of a compound that is named as a salt. Marks after values point to notes of the source that are not given here. Values belong to the compound of their own block, whether it stands above or below them.

Key:
[1] = parameters: method as in Japanese Pharmacopoeia monograph; details: ref Japanese Pharmacopoeia monograph, cited from earlier work
[2] = Enzymatic hydrolysis of UqH-derivatives in rat liver microsomes; format: in vitro ADME; details: for Km / Vmax: pH 7.4, 37 °C
Description: (§1) The hydrolysis of esters was analyzed at 37 °C in phosphate buffered saline (PBS) containing commercially available rat or human liver microsomes (In Vitro Technologies, Inc., Baltimore, MD, USA). The microsomes (20 mg/mL) were adjusted to a protein concentration of 2 mg/mL and were preincubated at 37 °C for 5 min before adding the esters.
Stock solutions of esters were prepared in ethanol. The enzymatic reactions were initiated by adding 10 µL ester stock solution (final concentration 0.1–0.4 mM) and 50 μL PBS to 940 µL of preheated reaction medium containing rat or human liver microsomes in amber test tubes. These reactions were incubated at 37 °C and, at various times, 100 μL aliquots were removed and mixed with 100 µL 10% trichloroacetic acid. Samples were then vortex mixed for 2 min and 800 µL ethyl acetate was added, with vortex mixing for 5 min. The samples were centrifuged at 1250× g for 10 min. The 20 µL organic layer was analyzed by the HPLC system described in Section 3.9.1. The initial hydrolytic rate (mM UqH-10 formed per min) was calculated from the initial slope of a plot of UqH-10 concentration versus time.
(§2) The Shimadzu HPLC system (Shimadzu, Kyoto, Japan) consisted of a pump (LC-10AD), an autoinjector (SIL-10ADvp), a UV detector (SPD-10Avp), and a column oven (CTO-10Avp). The eluent was monitored spectrophotometrically at 280 nm. Compounds were analyzed on a YMC-Pack C8 reversed-phase column (φ 4.6 × 250 mm, YMC Co., Ltd., Kyoto, Japan) protected by a µBondapak C18 Guard-Pak (Waters Co., Milford, MA, USA) with a degassed mobile phase of methanol and 2-propanol (850/150, v/v) at 0.8 mL/min. UqH-10 and Uq-10 were quantified using linear calibration curves of peak areas versus concentrations. UqH-10 was partly oxidized during the preparation procedure. Therefore, the sum of UqH-10 and Uq-10 represented total UqH-10. Retention times were: UqH-10, 11.6 min; UqH-ester derivatives, 13.2 min and Uq-10, 15.4 min.

Water solubility = format: physicochemical; details: in water
Description: The aqueous solubility of each ester was determined by adding 20 μmol of each compound to 1 mL distilled water in amber test tubes and incubating the tubes at 25 ± 1 °C in a constant-temperature water bath. The test tubes were shaken for 24 h and the suspensions were centrifuged at 1250× g for 10 min. The supernatants were diluted 10-fold with distilled water and assayed by the HPLC method described in Section 3.9.1.
as §2

[3] = Enzymatic hydrolysis of UqH-derivatives in human liver microsomes; format: in vitro ADME; details: pH 7.4, 37 °C, Michaelis–Menten fit
Description: as §1
Stock solutions of esters were prepared in ethanol. The enzymatic reactions were initiated by adding 10 µL ester stock solution (final concentration 0.1–0.4 mM) and 50 μL PBS to 940 µL of preheated reaction medium containing rat or human liver microsomes in amber test tubes. […] The 20 µL organic layer was analyzed by the HPLC system described in Section 3.9.1. The initial hydrolytic rate (mM UqH-10 formed per min) was calculated from the initial slope of a plot of UqH-10 concentration versus time.
The Shimadzu HPLC system (Shimadzu, Kyoto, Japan) consisted of a pump (LC-10AD), an autoinjector (SIL-10ADvp), a UV detector (SPD-10Avp), and a column oven (CTO-10Avp). The eluent was monitored spectrophotometrically at 280 nm. Compounds were analyzed on a YMC-Pack C8 reversed-phase column (φ 4.6 × 250 mm, YMC Co., Ltd., Kyoto, Japan) protected by a µBondapak C18 Guard-Pak (Waters Co., Milford, MA, USA) with a degassed mobile phase of methanol and 2-propanol (850/150, v/v) at 0.8 mL/min. […]

[4] = Mixed-micellization with taurocholic acid (appearance of mixtures); format: physicochemical
Description: (§3) A solution of 20 mM UqH-DMG was prepared in distilled water and incubated at 36.5 °C until the solution was translucent. The solution was combined with 10 mM TCA aqueous solution in the final molar ratios of 1:0.5–10 UqH-DMG:TCA.

[5] = Micellization of UqH-DMG in water (visual inspection, solubilizing point vs temperature); format: physicochemical; details: for Appearance of solution: 45 mM in water
Description: UqH-DMG was diluted to intended concentrations with milliQ water in glass tubes. The test tubes were incubated in a water bath equipped with a thermometer. The solution appearance was visually inspected and the solubilizing points were plotted on a concentration versus incubation temperature curve.

[6] = Particle size by dynamic light scattering (Zetasizer Nano ZS); format: physicochemical; details: mean ± SD
Description: as §3
The Z-average of diameters of the particles of aqueous solution of UqH-DMG prepared in a polystyrene cuvette in Section 3.7.1. above were determined by a Zetasizer Nano ZS (MALVERN, Worcestershire, UK). The measurements were performed three independent times for each sample.

[7] = tested on: esterases in human liver microsomes; assay: Effect of eserine on UqH-4-DMG hydrolysis in human liver microsomes; format: biochemical; details: eserine 0–2.0 mM
Description: (§4) Effects of eserine on UqH-4-DMG hydrolysis in liver microsomes was also examined, using similar methods, with 50 µL eserine aqueous solution added, instead of PBS, to the mixtures with liver microsomes. Eserine was tested at 0–2.0 mM.

[8] = tested on: esterases in rat liver microsomes; assay: Effect of eserine on UqH-4-DMG hydrolysis in rat liver microsomes; format: biochemical; details: eserine 0–2.0 mM
Description: as §4

[9] = calculated using generated UqH-10 levels after sequential hydrolysis

Km ([2]; Michaelis–Menten fit): 4630 µM | Water solubility compared with UqH bis-ester (UqH-DMG) (Water solubility): lower
SMILES: COc1c(O)c(C)c(C/C=C(\C)CC/C=C(\C)CC/C=C(\C)CC/C=C(\C)CC/C=C(\C)CC/C=C(\C)CC/C=C(\C)CC/C=C(\C)CC/C=C(\C)CCC=C(C)C)c(OC(=O)CN(C)C)c1OC [UqH-1-DMG]
Vmax ([2]; Michaelis–Menten fit): 8.21e-07 M/min

Km [3]: 72.2 µM | Vmax/Km relative to UqH-1-DMG [2]: 8.9 fold | Km ([2]; Michaelis–Menten fit): 75.1 µM | Water solubility compared with UqH bis-ester (UqH-DMG) (Water solubility): lower | Solubilization with taurocholic acid ([4]; 10-times molar-equivalents taurocholic acid): solubilized
SMILES: COc1c(O)c(C/C=C(\C)CC/C=C(\C)CC/C=C(\C)CC/C=C(\C)CC/C=C(\C)CC/C=C(\C)CC/C=C(\C)CC/C=C(\C)CC/C=C(\C)CCC=C(C)C)c(C)c(OC(=O)CN(C)C)c1OC [UqH-4-DMG]
Vmax [3]: 1.23e-07 M/min | Vmax ([2]; Michaelis–Menten fit): 1.19e-07 M/min

Km [2, 9]: 3890 µM | solubility at 24 h (Water solubility; distilled water, read-out: Water solubility (transparent solution in water at concentrations up to)): ≤ 5000 µM | Appearance of solution ([5]; 27.0 °C): opaque | Appearance of solution ([5]; 36.5 °C): transparent | Krafft's point ([5]; in water): around 36.5 °C | Z-average particle diameter ([6]; 20 mM in water, without TCA, prepared at 36.5 °C): 20.38 ± 0.14 nm and 20 nm | Z-average particle diameter ([6]; UqH-DMG:TCA mixture at 1:1 molar ratio): 5.183 ± 0.033 nm and 5 nm | Appearance of mixture with taurocholic acid ([4]; UqH-DMG:TCA molar ratio 1:0.5): slightly cloudy | Appearance of mixture with taurocholic acid ([4]; UqH-DMG:TCA molar ratios 1:1 to 1:10): transparent
SMILES: COc1c(OC(=O)CN(C)C)c(C)c(C/C=C(\C)CC/C=C(\C)CC/C=C(\C)CC/C=C(\C)CC/C=C(\C)CC/C=C(\C)CC/C=C(\C)CC/C=C(\C)CC/C=C(\C)CCC=C(C)C)c(OC(=O)CN(C)C)c1OC [UqH-DMG, 2,3-dimethoxy-5-methyl-6-decaprenyl-benzene-1,4-bis-N,N–dimethyl glycinate]
Vmax [2, 9]: 0.603 ^a ×10^−6 M·min^−1

The remaining lines, values behind:

SMILES: COc1c(OC(=O)CN(C)C)c(C)c(C/C=C(\C)CC/C=C(\C)CC/C=C(\C)CC/C=C(\C)CC/C=C(\C)CC/C=C(\C)CC/C=C(\C)CC/C=C(\C)CC/C=C(\C)CCC=C(C)C)c(OC(=O)CN(C)C)c1OC (as salt: hydrochloride) [UqH-DMG, 2,3-dimethoxy-5-methyl-6-decaprenyl-benzene-1,4-bis-N,N–dimethyl glycinate]
melting point: 179 to 181 °C

SMILES: COC1=C(OC)C(=O)C(C/C=C(\C)CC/C=C(\C)CC/C=C(\C)CC/C=C(\C)CC/C=C(\C)CC/C=C(\C)CC/C=C(\C)CC/C=C(\C)CC/C=C(\C)CCC=C(C)C)=C(C)C1=O [Uq-10, Ubiquinone-10]
Water solubility ([1]; even when diluted to this concentration): < 116 µM | Water solubility descriptor [1]: practically insoluble, or insoluble

SMILES: CNC(=O)Oc1ccc2c(c1)[C@]1(C)CCN(C)[C@@H]1N2C [eserine, physostigmine sulfate]
Effect on UqH-4-DMG hydrolysis [7]: inhibited | Effect on UqH-4-DMG hydrolysis [8]: inhibited
